# Data published in ChEMBL document CHEMBL1201862, “PubChem BioAssay data set” (2004).
# Calls of active or inactive are those of the source.
# Assays:
# [1] = Luminescence Cell-Based Dose Response to Identify Activators of 5'UTR Stem-Loop Driven Prion Protein mRNA Translation in H4-C Neuroglioblastoma Cells. [Related pubchem assays: 1829 (Project Summary), 1814 (Primary HTS)]; format: functional
# H4 = test: Luminescence Cell-Based Dose Response HTS to Identify Activators of 5'UTR Stem-Loop Driven Prion Protein mRNA Translation in H4 Neuroglioblastoma Cells. [Related pubchem assays: 1829 (Project Summary), 1814 (Primary HTS)]; format: functional; conditions: Homo sapiens
# [2] = Luminescence Cell-Based Dose Response to Identify Activators of Luciferase Translation or Activity in H4-C Neuroglioblastoma Cells. [Related pubchem assays: 1829 (Project Summary), 1814 (Primary HTS)]; format: functional
# [3] = Luminescence Cell-Based Dose Confirmation to Identify Activators of 5'UTR Stem-Loop Driven Alpha-Synuclein mRNA Translation in H4 Neuroglioblastoma Cells. [Related pubchem assays: 1829 (Project Summary), 1814 (Primary HTS)]; format: functional
# [4] = target: Aryl hydrocarbon receptor (Homo sapiens, UniProt P35869); test: Luminescence-based cell-based high throughput dose response assay for activators of the Aryl Hydrocarbon Receptor (AHR). [Related pubchem assays: 2796 (Primary screen (AHR activators in singlicate)), 2845 (Confirmation screen (AHR activators in triplicate)), 434939 (Counterscreen (PXR activators in triplicate)), 2804 (Summary (AHR activators))]; format: ADME
# Chain of Aryl hydrocarbon receptor (P35869 whole entry): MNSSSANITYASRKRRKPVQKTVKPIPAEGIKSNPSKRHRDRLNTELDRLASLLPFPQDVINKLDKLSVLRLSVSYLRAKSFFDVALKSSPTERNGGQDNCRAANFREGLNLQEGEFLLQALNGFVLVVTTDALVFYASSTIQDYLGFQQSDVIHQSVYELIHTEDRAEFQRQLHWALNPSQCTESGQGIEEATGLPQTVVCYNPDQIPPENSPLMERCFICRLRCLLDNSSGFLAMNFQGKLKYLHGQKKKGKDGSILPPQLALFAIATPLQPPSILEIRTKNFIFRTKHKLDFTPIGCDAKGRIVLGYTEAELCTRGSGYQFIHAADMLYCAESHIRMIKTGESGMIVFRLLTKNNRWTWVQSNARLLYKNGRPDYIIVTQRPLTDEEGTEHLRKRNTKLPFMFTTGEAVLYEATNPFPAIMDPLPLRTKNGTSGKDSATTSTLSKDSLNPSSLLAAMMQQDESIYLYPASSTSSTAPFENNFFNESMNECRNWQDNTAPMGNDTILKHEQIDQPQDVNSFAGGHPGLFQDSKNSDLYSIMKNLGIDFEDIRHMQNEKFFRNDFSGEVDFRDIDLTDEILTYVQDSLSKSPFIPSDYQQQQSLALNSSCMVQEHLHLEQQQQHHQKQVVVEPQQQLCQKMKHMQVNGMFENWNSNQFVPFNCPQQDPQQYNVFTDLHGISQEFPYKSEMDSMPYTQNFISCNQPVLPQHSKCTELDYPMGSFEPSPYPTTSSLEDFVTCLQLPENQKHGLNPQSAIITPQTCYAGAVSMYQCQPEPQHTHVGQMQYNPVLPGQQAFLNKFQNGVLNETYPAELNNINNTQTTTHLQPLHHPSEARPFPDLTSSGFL
# Estrogen receptor beta = Estrogen receptor beta (Homo sapiens, UniProt Q92731); test: ERβ–SRC-3 coactivator interaction inhibitors, confirmation, orthogonal assay, biochemical, ELISA, streptavidin-HRP readout (AID 1060)
# Aminopeptidase N = target: T1, Aminopeptidase N (Plasmodium falciparum FcB1/Columbia, UniProt O96935); test: P. falciparum M1AAP inhibitors, biochemical, fluorogenic H-Leu-NHMec substrate, 1536-well (AID 1445); parameters: species or system Plasmodium falciparum 3D7, 3D7
# T1 sequence (O96935 whole entry): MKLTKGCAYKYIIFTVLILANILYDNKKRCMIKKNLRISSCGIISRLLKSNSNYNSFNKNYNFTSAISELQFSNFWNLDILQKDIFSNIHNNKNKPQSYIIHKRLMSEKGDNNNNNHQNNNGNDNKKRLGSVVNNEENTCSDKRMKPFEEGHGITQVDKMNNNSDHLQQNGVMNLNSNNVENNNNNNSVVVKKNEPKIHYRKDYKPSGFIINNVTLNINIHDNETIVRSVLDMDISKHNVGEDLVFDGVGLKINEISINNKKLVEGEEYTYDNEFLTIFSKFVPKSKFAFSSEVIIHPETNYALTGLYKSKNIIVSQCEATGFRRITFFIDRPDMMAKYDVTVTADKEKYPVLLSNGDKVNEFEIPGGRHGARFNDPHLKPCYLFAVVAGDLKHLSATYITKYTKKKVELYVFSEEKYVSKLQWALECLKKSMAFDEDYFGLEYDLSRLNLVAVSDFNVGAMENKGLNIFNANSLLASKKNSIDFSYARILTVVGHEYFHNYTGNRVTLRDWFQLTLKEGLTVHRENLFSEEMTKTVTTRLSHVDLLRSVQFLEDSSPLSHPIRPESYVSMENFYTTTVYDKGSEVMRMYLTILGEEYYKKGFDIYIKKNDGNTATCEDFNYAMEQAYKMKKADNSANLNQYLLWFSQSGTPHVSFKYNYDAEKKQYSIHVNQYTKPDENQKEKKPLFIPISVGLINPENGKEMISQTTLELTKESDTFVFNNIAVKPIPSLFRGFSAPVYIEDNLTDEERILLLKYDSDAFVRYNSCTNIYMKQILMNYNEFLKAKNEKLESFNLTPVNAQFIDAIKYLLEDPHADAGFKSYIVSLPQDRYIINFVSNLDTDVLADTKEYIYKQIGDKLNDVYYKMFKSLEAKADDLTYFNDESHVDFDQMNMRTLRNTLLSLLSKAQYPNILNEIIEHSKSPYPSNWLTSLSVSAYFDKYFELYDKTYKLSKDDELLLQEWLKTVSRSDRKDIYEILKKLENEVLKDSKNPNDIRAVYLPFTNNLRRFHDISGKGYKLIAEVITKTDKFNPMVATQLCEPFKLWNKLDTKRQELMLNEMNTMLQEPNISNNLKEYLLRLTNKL
# Large T antigen = Large T antigen (Simian virus 40, UniProt P03070); format: functional, Betapolyomavirus macacae;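 further: Confirmatory-stage PubChem screen for compounds that inhibit SV40 T antigen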
# Chain of Large T antigen (P03070 whole entry): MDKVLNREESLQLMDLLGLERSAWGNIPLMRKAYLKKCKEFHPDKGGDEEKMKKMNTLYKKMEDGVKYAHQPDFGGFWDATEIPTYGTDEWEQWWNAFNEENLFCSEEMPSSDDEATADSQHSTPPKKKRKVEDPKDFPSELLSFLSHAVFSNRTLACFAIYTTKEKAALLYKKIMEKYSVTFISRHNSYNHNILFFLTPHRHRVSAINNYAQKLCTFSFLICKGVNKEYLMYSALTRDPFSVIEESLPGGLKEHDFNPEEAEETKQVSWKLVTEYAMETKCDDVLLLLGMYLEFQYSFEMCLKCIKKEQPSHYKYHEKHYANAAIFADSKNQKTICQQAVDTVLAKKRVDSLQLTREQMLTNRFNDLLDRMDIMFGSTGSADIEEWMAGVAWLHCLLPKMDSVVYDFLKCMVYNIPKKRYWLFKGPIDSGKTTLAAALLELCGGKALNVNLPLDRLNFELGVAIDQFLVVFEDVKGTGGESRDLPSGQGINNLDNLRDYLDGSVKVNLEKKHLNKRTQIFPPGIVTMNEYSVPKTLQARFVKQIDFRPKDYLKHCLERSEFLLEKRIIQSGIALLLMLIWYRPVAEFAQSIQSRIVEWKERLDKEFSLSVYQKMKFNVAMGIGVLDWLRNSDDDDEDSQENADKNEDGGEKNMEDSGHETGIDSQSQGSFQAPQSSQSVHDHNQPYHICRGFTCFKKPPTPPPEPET
# [5] = target: Bifunctional protein GlmU (Mycobacterium tuberculosis, UniProt P9WMN3); test: Inhibitors of Mycobacterial Glucosamine-1-phosphate acetyl transferase (GlmU). Secondary screen.; parameters: species or system Mycobacterium tuberculosis H37Rv
# Chain of Bifunctional protein GlmU (P9WMN3 whole entry): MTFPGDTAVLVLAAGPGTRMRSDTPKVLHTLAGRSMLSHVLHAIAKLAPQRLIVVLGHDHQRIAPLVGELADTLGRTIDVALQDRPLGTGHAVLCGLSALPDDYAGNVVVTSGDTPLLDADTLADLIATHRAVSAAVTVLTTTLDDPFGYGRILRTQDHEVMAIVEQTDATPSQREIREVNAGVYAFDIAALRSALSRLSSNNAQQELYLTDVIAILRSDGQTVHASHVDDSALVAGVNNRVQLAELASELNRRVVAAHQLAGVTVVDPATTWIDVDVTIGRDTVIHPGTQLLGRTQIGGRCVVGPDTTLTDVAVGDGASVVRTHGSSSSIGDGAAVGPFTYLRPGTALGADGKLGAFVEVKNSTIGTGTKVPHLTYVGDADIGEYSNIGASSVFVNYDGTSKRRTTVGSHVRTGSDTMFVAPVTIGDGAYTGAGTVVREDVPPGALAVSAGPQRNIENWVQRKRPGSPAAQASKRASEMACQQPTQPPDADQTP
# [6] = target: Induced myeloid leukemia cell differentiation protein Mcl-1 (Homo sapiens, UniProt Q07820); format: functional
# Chain of Induced myeloid leukemia cell differentiation protein Mcl-1 (Q07820 whole entry): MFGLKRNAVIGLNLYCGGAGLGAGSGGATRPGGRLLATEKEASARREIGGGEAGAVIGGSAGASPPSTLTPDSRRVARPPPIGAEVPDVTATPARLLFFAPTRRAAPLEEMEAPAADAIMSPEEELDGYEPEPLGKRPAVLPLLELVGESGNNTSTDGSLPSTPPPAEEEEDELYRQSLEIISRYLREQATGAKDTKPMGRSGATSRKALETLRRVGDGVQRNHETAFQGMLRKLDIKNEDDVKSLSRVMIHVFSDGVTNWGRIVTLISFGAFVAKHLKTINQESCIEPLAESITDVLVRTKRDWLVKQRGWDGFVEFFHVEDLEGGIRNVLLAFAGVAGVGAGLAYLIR
# Nonstructural protein 1 = Nonstructural protein 1 (Influenza A virus, UniProt Q194T2); format: functional, Influenza A virus (A/California/07/2009(H1N1))
# Chain of Nonstructural protein 1 (Q194T2 whole entry): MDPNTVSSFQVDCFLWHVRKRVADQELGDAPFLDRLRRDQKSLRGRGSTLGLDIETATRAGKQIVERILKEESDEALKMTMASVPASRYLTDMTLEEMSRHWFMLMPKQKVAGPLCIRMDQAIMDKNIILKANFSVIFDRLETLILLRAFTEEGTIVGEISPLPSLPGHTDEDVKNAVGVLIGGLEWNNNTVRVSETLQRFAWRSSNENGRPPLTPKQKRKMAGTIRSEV
# [7] = target: T2, High affinity choline transporter 1 (Homo sapiens, UniProt Q9GZV3); test: CHT inhibitors, dose response, cell-based, 5-point CRC, membrane potential dye (AID 504840); format: functional
# T2 sequence (Q9GZV3 whole entry): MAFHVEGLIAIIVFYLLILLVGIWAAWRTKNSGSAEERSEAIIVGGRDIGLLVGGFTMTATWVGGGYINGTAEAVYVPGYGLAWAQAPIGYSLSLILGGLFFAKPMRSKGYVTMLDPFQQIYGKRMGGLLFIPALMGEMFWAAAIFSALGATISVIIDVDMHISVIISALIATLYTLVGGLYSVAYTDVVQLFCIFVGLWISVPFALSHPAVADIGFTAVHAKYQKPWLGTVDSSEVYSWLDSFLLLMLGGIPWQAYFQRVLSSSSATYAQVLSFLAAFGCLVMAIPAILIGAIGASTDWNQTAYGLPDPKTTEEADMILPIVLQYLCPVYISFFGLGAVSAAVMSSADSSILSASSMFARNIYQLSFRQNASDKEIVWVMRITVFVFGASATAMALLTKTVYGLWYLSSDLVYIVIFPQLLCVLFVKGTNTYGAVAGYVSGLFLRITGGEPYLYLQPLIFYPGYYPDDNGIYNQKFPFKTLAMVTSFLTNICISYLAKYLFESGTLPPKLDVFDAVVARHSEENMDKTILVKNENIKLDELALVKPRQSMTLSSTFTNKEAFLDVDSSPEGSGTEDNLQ
# Vero [8] = test: Vero cell cytotoxicity, cytotoxicity control for flavivirus capping enzyme inhibitors (AID 588742); format: functional; conditions: Chlorocebus sabaeus
# Vero [9] = test: cells; format: functional; conditions: Chlorocebus sabaeus
# Genome polyprotein = Genome polyprotein (dengue virus type 2, UniProt P29990); test: Dengue-2 NS5 methyltransferase inhibitors, primary screen, biochemical, confirmation dose response (AID 588689); format: functional
# [10] = target: T3, Long-chain-fatty-acid--AMP ligase FadD28 (Mycobacterium tuberculosis, UniProt P9WQ59); test: Fluorescence polarization aasay to screen for inhibitors that compete for the binding of FadD28 to a bisubstrate Measured in Biochemical System Using Plate Reader - 2147-01_Inhibitor_Dose_CherryPick_Activity.; format: functional, Mycobacterium tuberculosis H37Rv
# T3 sequence (P9WQ59 whole entry): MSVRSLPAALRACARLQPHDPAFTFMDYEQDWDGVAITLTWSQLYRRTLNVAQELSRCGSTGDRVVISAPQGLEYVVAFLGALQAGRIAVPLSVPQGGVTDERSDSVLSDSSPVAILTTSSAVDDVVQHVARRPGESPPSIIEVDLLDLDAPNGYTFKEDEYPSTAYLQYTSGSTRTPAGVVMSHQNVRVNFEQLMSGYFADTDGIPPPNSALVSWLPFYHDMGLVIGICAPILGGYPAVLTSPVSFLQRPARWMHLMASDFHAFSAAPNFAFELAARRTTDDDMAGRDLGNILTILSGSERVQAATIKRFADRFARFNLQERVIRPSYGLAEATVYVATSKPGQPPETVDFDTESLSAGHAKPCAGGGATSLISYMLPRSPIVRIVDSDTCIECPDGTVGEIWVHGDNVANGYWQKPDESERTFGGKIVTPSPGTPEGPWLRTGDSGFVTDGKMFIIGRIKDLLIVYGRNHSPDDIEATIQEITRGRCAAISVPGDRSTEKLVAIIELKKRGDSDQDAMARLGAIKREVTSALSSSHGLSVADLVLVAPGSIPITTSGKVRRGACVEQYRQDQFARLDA
# Leucine aminopeptidase = target: T4, Leucine aminopeptidase (Plasmodium falciparum 3D7, UniProt Q8IL11); test: P. falciparum M17LAP inhibitors, primary screen, biochemical, fluorogenic H-Leu-NHMec substrate, 1536-well (AID 1619); format: functional
# T4 sequence (Q8IL11 whole entry): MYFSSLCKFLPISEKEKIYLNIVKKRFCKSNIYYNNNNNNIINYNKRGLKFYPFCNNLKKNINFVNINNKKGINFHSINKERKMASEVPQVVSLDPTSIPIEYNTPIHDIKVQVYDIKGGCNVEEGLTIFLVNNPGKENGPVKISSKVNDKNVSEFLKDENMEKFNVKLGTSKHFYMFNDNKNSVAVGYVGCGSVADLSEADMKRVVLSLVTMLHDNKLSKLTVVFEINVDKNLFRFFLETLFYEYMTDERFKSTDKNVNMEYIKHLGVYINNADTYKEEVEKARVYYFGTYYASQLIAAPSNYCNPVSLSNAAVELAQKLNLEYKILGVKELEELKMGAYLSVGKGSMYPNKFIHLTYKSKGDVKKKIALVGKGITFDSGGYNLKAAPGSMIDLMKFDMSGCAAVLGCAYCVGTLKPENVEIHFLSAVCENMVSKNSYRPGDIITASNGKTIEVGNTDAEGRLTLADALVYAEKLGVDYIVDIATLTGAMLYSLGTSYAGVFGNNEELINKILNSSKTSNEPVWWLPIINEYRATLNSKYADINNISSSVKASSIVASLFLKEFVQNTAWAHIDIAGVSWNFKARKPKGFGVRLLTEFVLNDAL
# Aspartyl aminopeptidase = Aspartyl aminopeptidase (Plasmodium falciparum 3D7, UniProt Q8I2J3); test: Counterscreen for inhibitors of M1 and M17 aminopeptidases: QFRET-based biochemical high throughput dose response assay for inhibitors of the Plasmodium falciparum M18 Aspartyl Aminopeptidase (PFM18AAP). [Related PubChem assays: 1619 (Screening assay (M17LAP inhibitors).), 1445 (Screening assay (M1AAP inhibitors).)]
# Chain of Aspartyl aminopeptidase (Q8I2J3 whole entry): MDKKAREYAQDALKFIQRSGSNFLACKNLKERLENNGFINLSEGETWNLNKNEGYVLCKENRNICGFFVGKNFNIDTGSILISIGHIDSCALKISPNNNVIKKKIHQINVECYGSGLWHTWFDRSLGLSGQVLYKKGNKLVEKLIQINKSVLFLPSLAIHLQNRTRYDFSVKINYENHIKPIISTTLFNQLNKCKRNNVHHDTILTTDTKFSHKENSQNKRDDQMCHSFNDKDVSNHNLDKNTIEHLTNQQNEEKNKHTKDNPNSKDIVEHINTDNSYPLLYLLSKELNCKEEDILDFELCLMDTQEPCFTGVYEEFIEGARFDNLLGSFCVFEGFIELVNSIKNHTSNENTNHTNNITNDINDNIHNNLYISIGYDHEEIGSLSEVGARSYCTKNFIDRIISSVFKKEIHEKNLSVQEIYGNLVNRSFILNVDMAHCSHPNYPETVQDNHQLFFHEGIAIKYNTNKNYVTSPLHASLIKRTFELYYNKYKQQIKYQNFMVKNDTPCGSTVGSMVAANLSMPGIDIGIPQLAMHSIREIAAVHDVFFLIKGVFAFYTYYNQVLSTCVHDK
# Procathepsin L = Procathepsin L (Homo sapiens, UniProt P07711); test: cathepsin L inhibitors, dose response, counter-screen for M1/M17 aminopeptidase inhibitor project, biochemical, QFRET, 1536-well (AID 2214)
# Chain of Procathepsin L (P07711 whole entry): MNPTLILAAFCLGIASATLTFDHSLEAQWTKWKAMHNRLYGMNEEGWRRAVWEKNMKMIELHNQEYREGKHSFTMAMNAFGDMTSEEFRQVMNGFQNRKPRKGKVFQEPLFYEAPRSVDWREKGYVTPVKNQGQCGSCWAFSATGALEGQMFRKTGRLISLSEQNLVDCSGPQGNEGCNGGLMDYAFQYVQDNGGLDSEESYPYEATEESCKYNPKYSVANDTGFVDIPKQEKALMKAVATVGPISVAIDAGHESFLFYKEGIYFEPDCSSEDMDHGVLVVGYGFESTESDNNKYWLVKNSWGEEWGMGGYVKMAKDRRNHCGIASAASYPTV
# [11] = target: E3 ubiquitin-protein ligase Mdm2 (Homo sapiens, UniProt Q00987); test: enhancers of MDM2-luciferase reporter signal, concentration-effect titration, project on inhibitors of MDM2 ubiquitin ligase, cellular assay, luminescent readout, 384-well plate format (AID 1394); format: functional;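 further: MDM2 E3 inhibitors raise luminescence so EC50 is for signal enhancement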
# Chain of E3 ubiquitin-protein ligase Mdm2 (Q00987 whole entry): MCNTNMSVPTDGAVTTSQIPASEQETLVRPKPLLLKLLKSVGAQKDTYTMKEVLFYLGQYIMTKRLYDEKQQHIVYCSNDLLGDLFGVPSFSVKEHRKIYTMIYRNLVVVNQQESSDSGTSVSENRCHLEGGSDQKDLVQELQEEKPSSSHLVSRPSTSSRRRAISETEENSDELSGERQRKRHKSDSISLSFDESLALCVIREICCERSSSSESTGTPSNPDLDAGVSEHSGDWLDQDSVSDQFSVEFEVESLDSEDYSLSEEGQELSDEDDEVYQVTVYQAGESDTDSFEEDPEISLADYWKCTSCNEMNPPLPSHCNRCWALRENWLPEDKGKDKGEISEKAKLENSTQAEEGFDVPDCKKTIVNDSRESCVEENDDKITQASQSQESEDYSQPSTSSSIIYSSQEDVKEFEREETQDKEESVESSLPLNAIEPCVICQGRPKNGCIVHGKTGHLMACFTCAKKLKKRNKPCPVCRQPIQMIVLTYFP
# [12] = Luminescence Cell-Based Dose Confirmation HTS to Identify Activators of 5'UTR Stem-Loop Driven Alpha-Synuclein mRNA Translation in H4 Neuroglioblastoma Cells. [Related pubchem assays: 1829 (Project Summary), 1814 (Primary HTS)]; format: functional
# [13] = Luminescence Cell-Based Dose Response HTS to Identify Activators of Luciferase Translation or Activity in H4 […] Cells. [Related pubchem assays: 1829 (Project Summary), 1814 (Primary HTS)]; format: functional
# [14] = target: Ubiquitin carboxyl-terminal hydrolase BAP1 (Homo sapiens, UniProt Q92560); test: BAP1 deubiquitinase inhibitors, dose response, biochemical (AID 714); format: functional
# Chain of Ubiquitin carboxyl-terminal hydrolase BAP1 (Q92560 whole entry): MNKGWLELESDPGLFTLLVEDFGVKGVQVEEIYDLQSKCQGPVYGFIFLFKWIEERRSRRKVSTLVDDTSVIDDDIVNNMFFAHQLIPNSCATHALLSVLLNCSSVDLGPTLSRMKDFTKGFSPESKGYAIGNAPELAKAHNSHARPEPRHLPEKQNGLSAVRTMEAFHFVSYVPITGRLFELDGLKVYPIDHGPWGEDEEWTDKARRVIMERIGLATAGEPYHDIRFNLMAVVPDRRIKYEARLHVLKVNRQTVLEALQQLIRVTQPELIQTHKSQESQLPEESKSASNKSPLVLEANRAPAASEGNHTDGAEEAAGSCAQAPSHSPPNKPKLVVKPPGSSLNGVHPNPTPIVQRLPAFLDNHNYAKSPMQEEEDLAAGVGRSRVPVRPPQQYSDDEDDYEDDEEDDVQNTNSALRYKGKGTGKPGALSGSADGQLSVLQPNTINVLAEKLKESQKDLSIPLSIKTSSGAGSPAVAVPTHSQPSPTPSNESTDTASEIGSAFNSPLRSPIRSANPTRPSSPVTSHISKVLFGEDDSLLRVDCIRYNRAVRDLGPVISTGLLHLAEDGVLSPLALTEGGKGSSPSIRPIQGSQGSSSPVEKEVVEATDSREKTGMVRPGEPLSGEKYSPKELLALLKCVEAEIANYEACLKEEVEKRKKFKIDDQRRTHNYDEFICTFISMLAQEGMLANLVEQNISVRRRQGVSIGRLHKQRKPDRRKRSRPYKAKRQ
structure (smiles),measurement,setting,value
Cc1cc(C(=O)CSc2nc3ccccc3o2)c(C)n1CC1CCCO1 (stereo not given),EC50,[1],0.323 µM (active)
same,EC50,H4,< 0.1 µM (active)
same,EC50,[2],0.231 µM (active)
same,EC50,[3],0.21 µM (active)
COCC(=O)N1CCc2ccc(NC(=O)c3ccc(C(F)(F)F)cc3)cc2C1,EC50,[4],> 1.13 µM (active)
Fc1ccc(CSc2ncnc3c2oc2ccccc23)cc1,IC50,Estrogen receptor beta,> 50 µM (not active)
COc1ccc(Cl)cc1C(=O)Nc1ccc(N(C)C(C)=O)cc1,EC50,[4],2.81 µM (active)
COc1cc(/C=C2/C(=O)c3cccc([N+](=O)[O-])c3C2=O)c(Br)cc1O,IC50,Aminopeptidase N,5.94 µM (active)
same,IC50,Large T antigen,13.9 µM (active)
same,IC50,[5],60.9 µM (active)
same,IC50,[6],1.39 µM (active)
same,IC50,Nonstructural protein 1,20.9 µM (active)
same,IC50,[7],9.13 µM (active)
same,CC50,Vero [8],34 µM (active)
same,CC50,Vero [9],16.4 µM (active)
same,IC50,Genome polyprotein,7.44 µM (active)
same,AC50,[10],> 100 µM (inactive)
CC(C)c1ccc(NC(=O)C2CCCCC2C(=O)O)cc1 (stereo not given),IC50,Leucine aminopeptidase,3.51 µM (active)
same,IC50,Aspartyl aminopeptidase,> 73.5 µM (not active)
same,IC50,Procathepsin L,> 59.6 µM (not active)
Cc1cc(C)c(S(=O)(=O)c2ccccc2)c(OC(=O)c2cc(F)c(F)cc2Cl)n1,EC50,[11],186 µM (not active)
Cc1oc2cc3c(C(=O)N4CCCCC4)c(C)oc3cc2c1C(=O)N1CCCCC1,EC50,[1],> 12 µM (not active)
same,EC50,[12],< 0.1 µM (active)
same,EC50,[13],12.2 µM (active)
same,EC50,H4,> 120 µM (not active)
same,EC50,[2],0.573 µM (active)
same,EC50,[3],0.598 µM (active)
O=C(Nc1ccc(F)cc1)c1ccccc1S(=O)(=O)c1ccccc1[N+](=O)[O-],EC50,[11],0.53 µM (not active)
O=S(=O)(c1cccc(S(=O)(=O)N2CCC(n3nnc4ccccc43)CC2)c1)N1CCCCC1,IC50,[14],18.3 µM (active)
COc1ccc(NC(=O)c2c(NC(=O)CNCc3ccco3)sc3c2CCC3)c(OC)c1,IC50,[14],35.8 µM (not active)
